# Laboratory results as given in patent US12486274B2, “Substituted pyrazolo-pyrimidines and uses thereof” (Verge Analytics, Inc., priority 2020, dated 2025).
# Target: Full length human recombinant PIKFYVE (Homo sapiens (Human), UniProt Q9Y2I7)
# Assay: Inhibition of PIKfyve (microfluidic electrophoresis kinase assay)
# Type: biochemical
# Details: 2 nM enzyme, PI3P/PS substrate, 3 h at room temperature, 12 concentrations
# Description: Full length human recombinant PIKFYVE expressed in baculovirus expression system as N-terminal GST-fusion protein (265 kDa) was obtained from Carna Biosciences (Kobe, Japan). The kinase substrate was prepared by mixing and sonicating fluorescently-labeled phosphatidylinositol 3-phosphate (PI3P) with phospho-L-serine (PS) at a 1:10 ratio in 50 mM HEPES buffer pH7.5.
# The kinase reactions were assembled in 384-well plates (Greiner) in a total volume of […] as follows. Kinase protein was pre-diluted in an assay buffer comprising 25 mM HEPES, pH 7.5, 1 mM DTT, 2.5 mM MgCl2, and 2.5 mM MnCl2, and 0.005% Triton X-100, and dispensed into a 384-well plate (10 μL per well). Test compounds were serially pre-diluted in DMSO and added to the protein samples by acoustic dispensing (Labcyte Echo). The concentration of DMSO was equalized to 1% in all samples. All test compounds were tested at 12 concentrations. Apilimod was used as a reference compound and was tested in identical manner in each assay plate. Control samples (0%-inhibition, in the absence of inhibitor, DMSO only) and 100%-inhibition (in the absence of enzyme) were assembled in replicates of four and were used to calculate %-inhibition in the presence of compounds. The reactions were initiated by addition of 10 μL of 2× PI3P/PS substrate supplemented with ATP. The final concentration of enzyme was 2 nM, the final concentration of ATP was 10 mM, and the final concentration of PI3P/PS substrate was 1 μM (PI3P). The kinase reactions were allowed to proceed for 3 h at room temperature. Following incubation, the reactions were quenched by addition of […] of termination buffer (100 mM HEPES, pH 7.5, 0.01% Triton X-100, 20 mM EDTA). Terminated plates were analyzed on a microfluidic electrophoresis instrument (Caliper LabChip® 3000, Caliper Life Sciences/Perkin Elmer). The change in the relative fluorescence intensity of the PI (3) P substrate and PI (3,5) P product peaks was measured. The activity in each test sample was determined as the product to sum ratio (PSR): P/(S+P), where P is the peak height of the product, and S is the peak height of the substrate. Percent inhibition (Pinh) was determined using the following equation: Pinh=(PSR0% inh−PSRcompound)/(PSR0% inh−PSR100% inh)*100 in which PSRcompound is the product/sum ratio in the presence of compound, PSR0% inh is the product/sum ratio in the absence of compound, and the PSR100% inh is the product/sum ratio in the absence of the enzyme.
# Sequence of Full length human recombinant PIKFYVE (Q9Y2I7 whole entry): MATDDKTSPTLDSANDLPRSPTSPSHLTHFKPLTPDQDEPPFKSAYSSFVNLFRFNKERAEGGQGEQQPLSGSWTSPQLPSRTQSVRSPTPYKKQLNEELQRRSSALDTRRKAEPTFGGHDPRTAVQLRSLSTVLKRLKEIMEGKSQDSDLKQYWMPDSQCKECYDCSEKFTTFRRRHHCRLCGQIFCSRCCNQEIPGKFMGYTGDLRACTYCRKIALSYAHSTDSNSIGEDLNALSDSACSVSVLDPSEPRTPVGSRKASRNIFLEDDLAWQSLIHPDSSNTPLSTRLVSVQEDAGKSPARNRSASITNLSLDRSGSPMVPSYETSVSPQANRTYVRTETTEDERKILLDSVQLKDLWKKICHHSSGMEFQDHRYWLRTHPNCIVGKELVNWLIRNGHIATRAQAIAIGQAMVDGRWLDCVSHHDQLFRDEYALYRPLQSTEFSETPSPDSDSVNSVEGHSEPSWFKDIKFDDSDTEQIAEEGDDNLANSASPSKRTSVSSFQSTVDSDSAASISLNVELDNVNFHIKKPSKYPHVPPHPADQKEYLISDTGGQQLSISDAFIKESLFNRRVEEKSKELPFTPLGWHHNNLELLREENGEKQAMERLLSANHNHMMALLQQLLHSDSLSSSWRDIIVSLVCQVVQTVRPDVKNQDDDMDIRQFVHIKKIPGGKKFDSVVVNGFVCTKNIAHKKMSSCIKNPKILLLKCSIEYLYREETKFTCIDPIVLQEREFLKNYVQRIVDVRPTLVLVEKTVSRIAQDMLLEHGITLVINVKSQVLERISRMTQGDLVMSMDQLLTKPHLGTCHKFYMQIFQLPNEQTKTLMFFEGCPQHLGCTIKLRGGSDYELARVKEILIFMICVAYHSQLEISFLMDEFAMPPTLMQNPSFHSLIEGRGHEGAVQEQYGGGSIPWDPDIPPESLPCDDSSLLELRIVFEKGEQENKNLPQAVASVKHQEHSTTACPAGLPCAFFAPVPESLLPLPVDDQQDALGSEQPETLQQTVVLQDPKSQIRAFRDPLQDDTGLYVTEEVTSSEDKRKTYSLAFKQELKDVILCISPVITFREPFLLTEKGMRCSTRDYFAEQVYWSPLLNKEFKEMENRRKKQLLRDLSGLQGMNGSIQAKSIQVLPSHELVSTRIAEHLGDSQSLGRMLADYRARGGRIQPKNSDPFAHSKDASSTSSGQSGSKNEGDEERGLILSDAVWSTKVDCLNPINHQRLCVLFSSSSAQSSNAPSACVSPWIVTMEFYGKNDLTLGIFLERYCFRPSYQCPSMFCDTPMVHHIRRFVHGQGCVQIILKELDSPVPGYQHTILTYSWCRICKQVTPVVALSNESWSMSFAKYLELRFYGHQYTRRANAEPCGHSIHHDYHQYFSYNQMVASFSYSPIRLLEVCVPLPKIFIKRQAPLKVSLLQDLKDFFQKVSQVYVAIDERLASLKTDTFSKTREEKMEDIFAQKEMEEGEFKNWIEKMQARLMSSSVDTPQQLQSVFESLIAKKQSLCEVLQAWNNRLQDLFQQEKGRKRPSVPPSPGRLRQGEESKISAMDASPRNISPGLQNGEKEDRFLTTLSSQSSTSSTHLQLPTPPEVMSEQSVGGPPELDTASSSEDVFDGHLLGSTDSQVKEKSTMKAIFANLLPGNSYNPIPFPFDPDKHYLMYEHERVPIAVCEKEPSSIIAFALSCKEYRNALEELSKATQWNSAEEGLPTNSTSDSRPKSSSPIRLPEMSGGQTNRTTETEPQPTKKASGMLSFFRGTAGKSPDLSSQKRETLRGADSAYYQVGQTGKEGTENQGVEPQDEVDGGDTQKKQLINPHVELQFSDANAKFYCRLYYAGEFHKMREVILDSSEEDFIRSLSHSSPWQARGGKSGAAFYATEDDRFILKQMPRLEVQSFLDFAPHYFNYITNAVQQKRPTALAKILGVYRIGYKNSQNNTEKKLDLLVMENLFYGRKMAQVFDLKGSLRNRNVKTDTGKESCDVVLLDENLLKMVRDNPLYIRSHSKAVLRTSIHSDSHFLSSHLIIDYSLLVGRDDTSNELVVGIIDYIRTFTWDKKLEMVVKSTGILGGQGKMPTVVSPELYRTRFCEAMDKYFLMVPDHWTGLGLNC
row,SMILES,IC50 [µM]
1,"Cc1cccc(-c2ccn(-c3cc(N4CCOCC4)n4nc(C(=O)N[C@@H]5CCCN(C)C5)cc4n3)n2)c1 [Compound 52, N-[(3R)-1-methyl-3-piperidyl]-7-morpholino-5-[3-(m-tolyl)pyrazol-1-yl]pyrazolo[1,5-a]pyrimidine-2-carboxamide]",0.0284
2,"Cc1cccc(-c2ccn(-c3cc(N4CCOCC4)n4nc(C(=O)N[C@H]5CCCN(C)C5)cc4n3)n2)c1 [Compound 53, N-[(3S)-1-methyl-3-piperidyl]-7-morpholino-5-[3-(m-tolyl)pyrazol-1-yl]pyrazolo[1,5-a]pyrimidine-2-carboxamide]",0.0268
3,"Cc1cccc(-c2ccn(-c3cc(N4CCOCC4)n4nc(C(=O)NC5CCN(C)CC5)cc4n3)n2)c1 [Compound 54, N-(1-methyl-4-piperidyl)-7-morpholino-5-[3-(m-tolyl)pyrazol-1-yl]pyrazolo[1,5-a]pyrimidine-2-carboxamide]",0.126
4,"Cc1cccc(-c2cnn(-c3cc(N4CCOCC4)n4nc(C(=O)NC5CCOCC5)cc4n3)c2)c1 [Compound 56, 7-morpholino-5-[4-(m-tolyl)pyrazol-1-yl]-N-tetrahydropyran-4-yl-pyrazolo[1,5-a]pyrimidine-2-carboxamide]",3.42
5,"Cc1cccc(-c2cnn(-c3cc(N4CCOCC4)n4nc(-c5ccncn5)cc4n3)c2)c1 [Compound 57, 4-[5-[4-(m-tolyl)pyrazol-1-yl]-2-pyrimidin-4-yl-pyrazolo[1,5-a]pyrimidin-7-yl]morpholine]",3.75
6,"Cc1cccc(-c2cnn(-c3cc(N4CCOCC4)n4nc(-c5cccnc5N)cc4n3)c2)c1 [Compound 59, 3-[7-morpholino-5-[4-(m-tolyl)pyrazol-1-yl]pyrazolo[1,5-a]pyrimidin-2-yl]pyridin-2-amine]",> 20
7,"Cc1cccc(-c2cnn(-c3cc(N4CCOCC4)n4nc(-c5cnc(N)nc5)cc4n3)c2)c1 [Compound 60, 5-[7-morpholino-5-[4-(m-tolyl)pyrazol-1-yl]pyrazolo[1,5-a]pyrimidin-2-yl]pyrimidin-2-amine]",6.12

# The remaining lines, values ahead:
row,IC50 [µM],SMILES
1,0.0413,"Cc1cccc(-c2ccn(-c3cc(N4CCOCC4)n4nc(C(=O)N[C@H]5CCN(C)C5)cc4n3)n2)c1 [Compound 48, N-[(3S)-1-methylpyrrolidin-3-yl]-7-morpholino-5-[3-(m-tolyl)pyrazol-1-yl]pyrazolo[1,5-a]pyrimidine-2-carboxamide]"
2,0.112,"Cc1cccc(-c2ccn(-c3cc(N4CCOCC4)n4nc(C(=O)N[C@@H]5CCN(C)C5)cc4n3)n2)c1 [Compound 49, N-[(3R)-1-methylpyrrolidin-3-yl]-7-morpholino-5-[3-(m-tolyl)pyrazol-1-yl]pyrazolo[1,5-a]pyrimidine-2-carboxamide]"
3,0.0184,"Cc1cccc(-c2ccn(-c3cc(N4CCOCC4)n4nc(C(=O)N[C@H]5CCOC5)cc4n3)n2)c1 [Compound 50, 7-morpholino-5-[3-(m-tolyl)pyrazol-1-yl]-N-[(3S)-tetrahydrofuran-3-yl]pyrazolo[1,5-a]pyrimidine-2-carboxamide]"
4,0.0647,"Cc1cccc(-c2ccn(-c3cc(N4CCOCC4)n4nc(C(=O)N[C@@H]5CCOC5)cc4n3)n2)c1 [Compound 51, 7-morpholino-5-[3-(m-tolyl)pyrazol-1-yl]-N-[(3R)-tetrahydrofuran-3-yl]pyrazolo[1,5-a]pyrimidine-2-carboxamide]"
5,6.42,"Cc1cccc(-c2cnn(-c3cc(N4CCOCC4)n4nc(C(=O)NC5CCN(C)CC5)cc4n3)c2)c1 [Compound 55, N-(1-methyl-4-piperidyl)-7-morpholino-5-[4-(m-tolyl)pyrazol-1-yl]pyrazolo[1,5-a]pyrimidine-2-carboxamide]"
6,> 20,"Cc1cccc(-c2cnn(-c3cc(N4CCOCC4)n4nc(-c5cncnc5)cc4n3)c2)c1 [Compound 58, 4-[5-[4-(m-tolyl)pyrazol-1-yl]-2-pyrimidin-5-yl-pyrazolo[1,5-a]pyrimidin-7-yl]morpholine]"
